US20070203066A1, “Compositions and methods for inhibiting cellular proliferation” (priority 2005, published 2007)
Non-standard residues stand in square brackets, D forms with d. Primed or numbered codes have the meaning given here. No end group written: not given here. Ida = iminodiacetic acid linker, its two carboxyls bind the Lys side-chain amines of two peptides, giving a homodimer; Ida(3) = iminodiacetic acid linker, Lys side-chain amines bound to its two carboxyl groups; Ida(4) = iminodiacetic acid linker (dimerization linker bound to lysine side chain); Ida″ = iminodiacetic acid linker bound to the Lys side-chain amine, forming a dimer; Dip = N[C@H](C(=O)O)C(c1ccccc1)c1ccccc1; Cha = N[C@@H](CC1CCCCC1)C(=O)O; acyl = not defined here; Aib = CC(C)(N)C(=O)O

These substances were tested on HUVECs. Settings: HUVEC proliferation, bFGF at 10 ng/ml or VEGF at 5 ng/ml, 48 hours, BrdU incorporation; read-out: IC50 on HUVECs.
Assay type: cell-based
Summary of the method: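 Proliferation read-out: BrdU incorporation after 48-hour culture (37 ° C, 5% CO2) with graded peptide doses. Cells were in EBM with 2% FCS at 5,000 per well, driven by VEGF (5 ng/ml) or bFGF (10 ng/ml), added after ≥12-hour attachment.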

Substance	IC50 [µM]
256 (Ac-ARRRRQRV[dA]IIFK; not fully specified (C-terminus); also: homodimer: side chain of Lys13 bound to an Ida linker) [compound 256]	< 10
443 (Ac-RRRRWQAVAIYFK(Ida(4)); not fully specified (C-terminus); also: homodimer via Ida linker at K13) [compound 443]	< 10
360 (Ac-RRRHRQHVHIYFK(Ida(3))-NH2; also: homodimer via Ida linker on Lys13 side chain, Boc on Ida amine) [compound 360]	< 10
437 (Ac-RRRRMQAVAIYFK(Ida(4)); not fully specified (C-terminus); also: homodimer via Ida linker at K13) [compound 437]	< 10
363 (Ac-ARRRRQRVAWYFK-NH2; not fully specified (residue 13); also: homodimer of residues 1-13 via Ida linker on K13 side chain) [compound 363]	< 10
51 (Ac-KTKRKRKKQRVKIAYEEIFVQNMK; also: homodimer via Ida linker on Lys24 side chain) [compound 51]	< 10
282 (Ac-RRRRAQHVAIYFK-NH2; not fully specified (residue 13); also: homodimer: Lys13 side chain bound to Ida linker) [compound 282]	< 10
196 (Ac-ARRRRQRVAIIF; also: dimer: C-terminal Phe bound to an amino group of a Lys linker, 2 chains per Lys) [compound 196]	< 10
264 (Ac-[dA]RRRRQRVAIIFK-NH2; not fully specified (residue 13); also: homodimer via Ida linker on Lys13 side chains) [compound 264]	< 10
283 (Ac-RRRRAQAVHIYFK-NH2; not fully specified (residue 13); also: homodimer: Lys13 side chain bound to Ida linker) [compound 283]	< 10
472 (Ac-PRRRGQAVAIYFK(Ida(3)); not fully specified (C-terminus); also: homodimer via Ida linker on Lys13 side chain) [compound 472]	> 30
484 (Ac-ARRRNQAVAIKF; not fully specified (residue 11); also: homodimer: Lys11 side chain bound to Ida linker (Boc on Ida N)) [compound 484]	< 10
172 (acyl-KRRRRRQRVRIIF; not fully specified (residue 1); reading uncertain; also: homodimer via Ida-PEG 20 kDa linker on Lys1 side chains, acyl group not given here) [compound 172]	< 10
RKRKKQQRVKIAYEEIFV [compound 76]	> 30
KKQRVKIAYEEIF [compound 70]	> 30
491 (Ac-PRRRRQPVAIK(Ida″)F; also: homodimer via Ida linker on Lys11 side chain) [compound 491]	10 to 30
367 (Ac-ARRRRQRVAPYFK-NH2; not fully specified (residue 13); also: homodimer of residues 1-13 via Ida linker on K13 side chain) [compound 367]	> 30
430 (Ac-ARRRRQAVAIK(Ida(4))YF; also: homodimer via Ida linker at K11) [compound 430]	< 10
286 (Ac-RRRRAQHVHIYFK-NH2; not fully specified (residue 13); also: homodimer via Ida linker on Lys13 side chain) [compound 286]	< 10
467 (Ac-ARK(Ida(3))RRQAVAIYF; also: homodimer via Ida linker on Lys3 side chain) [compound 467]	> 30
454 (Ac-SRRRRQAVAIVFK-NH2; not fully specified (residue 13); also: homodimer via Ida linker at K13) [compound 454]	< 10
KTKRKRKKQRVKIIAVQNM [compound 109]	> 30
314 (Ac-RARRRQAVAIPFK(Ida)-NH2; also: homodimer via Ida linker on Lys13 side chain) [compound 314]	> 30
KTKRKRKKQAAKIAYEEIFVQNM [compound 73]	> 30
KTKRKRKKQRVEEIFVQNM [compound 31]	> 30
KRKKQRVKIIFV [compound 88]	> 30

Substance	IC50 [µM]
KRKKQQRVKIAYEEIFV [compound 77]	> 30
178 (Ac-RRRRRQAVRIIF; also: dimer: C-terminus of Phe12 of each chain bound to one amino group of a Lys linker) [compound 178]	< 10
455 (Ac-TRRRRQAVAIVFK-NH2; not fully specified (residue 13); also: homodimer via Ida linker at K13) [compound 455]	< 10
RKKQQRVKIAYEEIFV [compound 78]	> 30
RKRKKQRVKIIF [compound 82]	> 30
419 (Ac-ARRRRQQVAIYFK; not fully specified (residue 13, C-terminus); also: homodimer of residues 1-13 via Ida linker on K13 side chain) [compound 419]	< 10
KTKRKRKKQRVKIAYEEI [compound 17]	10 to 30
362 (Ac-ARRRRQRVA[Cha]YFK-NH2; not fully specified (residue 13); also: homodimer: Lys13 side chains joined by Ida (iminodiacetic acid) linker) [compound 362]	< 10
305 (Ac-RRRRRQAVRIIK(Ida)VN; also: homodimer via Ida linker on Lys12 side chain) [compound 305]	< 10
192 (Ac-ARARRQRVRIIF; also: dimer: C-terminal Phe bound to an amino group of a Lys linker, 2 chains per Lys) [compound 192]	< 10
219 (Ac-RRARRQAVAIIF; also: dimer: Phe C-termini joined via Lys linker) [compound 219]	< 10
407 (Ac-NRRRRQAVAIYFK; not fully specified (residue 13, C-terminus); also: homodimer via Ida linker on Lys side chains, linker at 13 via Ida, other end not in the chain) [compound 407]	< 10
320 (XRRRRQAVHIYFK; Xaa = Acylated Histidine; The side chain of Lysine at position 13 is covalently bound to an Ida linker forming a homodimer of residues 1 through 13.) [compound 320]	< 10
TKRKRKKQQRVKIAYEEIFV [compound 74]	> 30
466 (Ac-AK(Ida(3))RRRQAVAIYF; also: homodimer via Ida linker on Lys2 side chain) [compound 466]	> 30
251 (Ac-RRRRRQAVAIPFK; not fully specified (C-terminus); also: homodimer: side chain of Lys13 bound to an Ida linker) [compound 251]	> 30
511 (Ac-ARRRRFRVAIYFK; not fully specified (C-terminus); also: homodimer via Ida linker at Lys13 side chain) [compound 511]	10 to 30
368 (Ac-ARRRRQRVA[Dip]YFK-NH2; not fully specified (residue 13); printed as [AcARRRRQRVA3,3-diphenylAlaYFK*]; also: homodimer via Ida linker on Lys13 side chain, Boc on Ida amine) [compound 368]	< 10
435 (Ac-RRRRGQAVAIYFK(Ida(4)); not fully specified (C-terminus); also: homodimer via Ida linker at K13) [compound 435]	< 10
346 (Ac-ARRRRQRVAIYEK-NH2; not fully specified (residue 13); also: homodimer of residues 1-13 via Ida linker on Lys13 side chain) [compound 346]	> 30
319 (Ac-ARRRRQHVHIYFK(Ida)-NH2; also: homodimer via Ida linker on Lys13 side chain) [compound 319]	< 10
222 (XHHHHQAVAIIF; Xaa = Acylated Histidine; Dimeric peptide wherein the C terminus of Phe in position 12 of one peptide chain is covalently bound to one of the amino groups of a Lysine linker and Phe of the remaining peptide chain is covalently bound to the other amino group of the Lysine linker.) [compound 222]	> 30
469 (Ac-ARRRRQRVAIYFKARRRRQRVAIYFK; not fully specified) [compound 469]	< 10
TKRKRKKQRVKIAYEEIFV [compound 60]	10 to 30
177 (Ac-RRRRAQRVRIIF; also: homodimer via C-terminal Lys linker) [compound 177]	< 10
298 (Ac-ARRRRQRVA[Aib]FK-NH2; not fully specified (residue 12); also: homodimer via Ida linker on Lys12 side chain) [compound 298]	> 30
